# Reference: US10238670B2, “9-aminomethyl minocycline compounds and methods of use thereof in urinary tract infection (UTI) treatment” (Paratek Pharmaceuticals, Inc., priority 2016, dated 2019)
# Test: Phase 1b study in female adults with cystitis, urine PK
# Assay type: in vivo, human
# Conditions: urine
# Method: Urine was collected, the volume recorded, and analyzed for Compound 1 concentration at the following times: • Day 1 to 2: pooled total urine 0 to 4, 4 to 8, 8 to 12, and 12-24 hours after the t=0 h dose; Collection of the 12 to 24 h sample should be completed prior to the t=24 h dose on Day 2; • Day 5 to 6: pooled total urine 0 to 4, 4 to 8, 8 to 12, and 12-24 hours after the t=96 h dose;
# Urine was pooled during the intervals above. At the end of each interval, the time and total volume were recorded.
# Compound 1 urine concentration data was used to determine the amount excreted in a dosing interval, the urinary excretion rate, and, in conjunction with the plasma concentration data, to estimate the renal clearance (CLr) of Compound 1.
# Urine was collected and the volume recorded at the following times: • Day 1 to 2: pooled total urine 0 to 4, 4 to 8, 8 to 12, and 12-24 hours after the t=0 h dose; • Day 5 to 6: pooled total urine 0 to 4, 4 to 8, 8 to 12, and 12-24 hours after the t=96 h dose;
# At the end of each collection time period the pooled urine was frozen at −20° C. or colder and the total volume of urine collected for the time period was recorded. The samples were kept frozen at −20° C. or colder pending shipment to the bioanalytical laboratory.
# The urine sample volume, its Compound 1 concentration, the amount of Compound 1 excreted in the urine (product of volume and concentration) over a dosing interval, the urinary excretion rates and renal clearance (CLr) of Compound 1 following the initial Day 1 and final Day 5 doses were summarized by the treatment groups.
smiles,measurement,setting,value
"CN(C)c1cc(CNCC(C)(C)C)c(O)c2c1C[C@H]1C[C@H]3[C@H](N(C)C)C(O)=C(C(N)=O)C(=O)[C@@]3(O)C(O)=C1C2=O [Compound 1, 9-[(2,2-dimethyl-propylamino)-methyl]-minocycline]","Ae 12-24 hrs, Mean","Day 1, IV_PO300",14.00 mg
same,"Ae 12-24 hrs, Median","Day 1, IV_PO300",12.32 mg
same,"Fe 0-24 hrs, Geo. Mean","Day 1, IV_PO300",18.49%
same,"Fe 0-24 hrs, Mean","Day 1, IV_PO300",20.35%
same,"Fe 0-24 hrs, Median","Day 1, IV_PO300",20.70%
same,"Ae 0-4 hrs, Geo. Mean","Day 1, PO300",5.90 mg
same,"Ae 0-4 hrs, Mean","Day 1, PO300",6.41 mg
same,"Ae 0-4 hrs, Median","Day 1, PO300",6.58 mg
same,"Ae 0-24 hrs, Geo. Mean","Day 1, PO300",36.94 mg
same,"Ae 0-24 hrs, Median","Day 1, PO300",39.07 mg
same,"Ae 4-8 hrs, Geo. Mean","Day 1, PO300",6.42 mg
same,"Ae 4-8 hrs, Mean","Day 1, PO300",7.60 mg
same,"Ae 4-8 hrs, Median","Day 1, PO300",6.28 mg
same,"Ae 8-12 hrs, Geo. Mean","Day 1, PO300",7.22 mg
same,"Ae 8-12 hrs, Mean","Day 1, PO300",9.17 mg
same,"Ae 8-12 hrs, Median","Day 1, PO300",6.86 mg
same,"Ae 12-24 hrs, Geo. Mean","Day 1, PO300",14.19 mg
same,"Ae 12-24 hrs, Mean","Day 1, PO300",16.82 mg
same,"Ae 12-24 hrs, Median","Day 1, PO300",16.30 mg
same,"Fe 0-24 hrs, Geo. Mean","Day 1, PO300",6.16%
same,"Fe 0-24 hrs, Mean","Day 1, PO300",6.54%
same,"Fe 0-24 hrs, Median","Day 1, PO300",6.51%
same,"Ae 0-4 hrs, Geo. Mean","Day 1, PO450",3.96 mg
same,"Ae 0-4 hrs, Mean","Day 1, PO450",7.27 mg
same,"Ae 0-4 hrs, Median","Day 1, PO450",5.05 mg
same,"Ae 0-24 hrs, Geo. Mean","Day 1, PO450",34.07 mg
same,"Ae 0-24 hrs, Median","Day 1, PO450",37.30 mg
same,"Ae 4-8 hrs, Geo. Mean","Day 1, PO450",6.00 mg
same,"Ae 4-8 hrs, Mean","Day 1, PO450",7.11 mg
same,"Ae 4-8 hrs, Median","Day 1, PO450",6.16 mg
same,"Ae 8-12 hrs, Geo. Mean","Day 1, PO450",4.75 mg
same,"Ae 8-12 hrs, Mean","Day 1, PO450",5.36 mg
same,"Ae 8-12 hrs, Median","Day 1, PO450",5.27 mg
same,"Ae 12-24 hrs, Geo. Mean","Day 1, PO450",14.57 mg
same,"Ae 12-24 hrs, Mean","Day 1, PO450",16.92 mg
same,"Ae 12-24 hrs, Median","Day 1, PO450",15.98 mg
same,"Fe 0-24 hrs, Geo. Mean","Day 1, PO450",3.79%
same,"Fe 0-24 hrs, Mean","Day 1, PO450",3.99%
same,"Fe 0-24 hrs, Median","Day 1, PO450",4.14%
same,"Ae 0-4 hrs, Geo. Mean","Day 5, IV_PO300",3.89 mg
same,"Ae 0-4 hrs, Mean","Day 5, IV_PO300",7.74 mg
same,"Ae 0-4 hrs, Median","Day 5, IV_PO300",4.99 mg
same,"Ae 0-24 hrs, Geo. Mean","Day 5, IV_PO300",21.72 mg
same,"Ae 0-24 hrs, Median","Day 5, IV_PO300",31.29 mg
same,"Ae 4-8 hrs, Geo. Mean","Day 5, IV_PO300",5.22 mg
same,"Ae 4-8 hrs, Mean","Day 5, IV_PO300",8.38 mg
same,"Ae 4-8 hrs, Median","Day 5, IV_PO300",7.13 mg
same,"Ae 8-12 hrs, Geo. Mean","Day 5, IV_PO300",3.94 mg
same,"Ae 8-12 hrs, Mean","Day 5, IV_PO300",6.28 mg
same,"Ae 8-12 hrs, Median","Day 5, IV_PO300",6.47 mg
same,"Ae 12-24 hrs, Geo. Mean","Day 5, IV_PO300",7.31 mg
same,"Ae 12-24 hrs, Mean","Day 5, IV_PO300",10.71 mg
same,"Ae 12-24 hrs, Median","Day 5, IV_PO300",11.25 mg
same,"Fe 0-24 hrs, Geo. Mean","Day 5, IV_PO300",7.24%
same,"Fe 0-24 hrs, Mean","Day 5, IV_PO300",10.76%
same,"Fe 0-24 hrs, Median","Day 5, IV_PO300",10.43%
same,"Ae 0-4 hrs, Geo. Mean","Day 5, PO300",7.20 mg
same,"Ae 0-4 hrs, Mean","Day 5, PO300",10.02 mg
same,"Ae 0-4 hrs, Median","Day 5, PO300",9.35 mg
same,"Ae 0-24 hrs, Geo. Mean","Day 5, PO300",31.46 mg
same,"Ae 0-24 hrs, Median","Day 5, PO300",34.96 mg
same,"Ae 4-8 hrs, Geo. Mean","Day 5, PO300",9.17 mg
same,"Ae 4-8 hrs, Mean","Day 5, PO300",10.54 mg
same,"Ae 4-8 hrs, Median","Day 5, PO300",8.05 mg
same,"Ae 8-12 hrs, Geo. Mean","Day 5, PO300",5.02 mg
same,"Ae 8-12 hrs, Mean","Day 5, PO300",6.74 mg
same,"Ae 8-12 hrs, Median","Day 5, PO300",7.29 mg
same,"Ae 12-24 hrs, Geo. Mean","Day 5, PO300",10.71 mg
same,"Ae 12-24 hrs, Mean","Day 5, PO300",11.95 mg
same,"Ae 12-24 hrs, Median","Day 5, PO300",11.38 mg
same,"Fe 0-24 hrs, Geo. Mean","Day 5, PO300",10.49%
same,"Fe 0-24 hrs, Mean","Day 5, PO300",12.74%
same,"Fe 0-24 hrs, Median","Day 5, PO300",11.65%
same,"Ae 0-4 hrs, Geo. Mean","Day 5, PO450",9.50 mg
same,"Ae 0-4 hrs, Mean","Day 5, PO450",12.07 mg
same,"Ae 0-4 hrs, Median","Day 5, PO450",11.76 mg
same,"Ae 0-24 hrs, Geo. Mean","Day 5, PO450",43.60 mg
same,"Ae 0-24 hrs, Median","Day 5, PO450",50.26 mg
same,"Ae 4-8 hrs, Geo. Mean","Day 5, PO450",11.02 mg
same,"Ae 4-8 hrs, Mean","Day 5, PO450",19.74 mg
same,"Ae 4-8 hrs, Median","Day 5, PO450",10.30 mg
same,"Ae 8-12 hrs, Geo. Mean","Day 5, PO450",6.01 mg
same,"Ae 8-12 hrs, Mean","Day 5, PO450",7.54 mg
same,"Ae 8-12 hrs, Median","Day 5, PO450",5.62 mg
same,"Ae 12-24 hrs, Geo. Mean","Day 5, PO450",15.26 mg
same,"Ae 12-24 hrs, Mean","Day 5, PO450",18.59 mg
same,"Ae 12-24 hrs, Median","Day 5, PO450",20.23 mg
same,"Fe 0-24 hrs, Geo. Mean","Day 5, PO450",9.69%
same,"Fe 0-24 hrs, Mean","Day 5, PO450",12.19%
same,"Fe 0-24 hrs, Median","Day 5, PO450",11.17%
